Assay results reported in US9308198B2, “Treatment, prevention, and reversal of alcohol-induced brain disease” (priority 2006, dated 2016).

System: ChAT
Assay: ChAT immunoreactivity (MICE assay)
Assay type: cell-based, rat
Experimental: In vitro experiments were used to examine the effects of ethanol on receptor binding and choline acetyltransferase (ChAT) and acetylcholinesterase (AChE) expression in cerebellar neurons. Primary neuronal cultures were generated with postnatal day 8 rat pup cerebellar tissue (Nikolic et al. Genes Dev. 10:816 (1996)). The cultures were maintained with Dulbecco's modified Eagle's medium (DMEM) supplemented with 5% fetal calf serum, 4 mM glutamine, 100 μM non-essential amino acid mixture (Gibco-BRL, Grand Island, N.Y.), 25 mM KCl, and 9 g/L glucose. Ethanol treatment was accomplished by placing the cultures (seeded in 6-well dishes or 96-well plates) in sealed chambers in which 50 mM ethanol was vaporized from a reservoir tray (de la Monte et al. Alcohol Clin. Exp. Res. 24:716 (2000); Banerjee et al. Alcohol Clin. Exp. Res. 22:2093 (1998)). Control cultures were identically treated but with water added to the reservoir tray. The chambers were flushed with gas containing 75% nitrogen, 20% oxygen, and 5% carbon dioxide. After 96 hours incubation at 37° C., the cells were harvested to measure insulin, IGF-I, and IGF-II receptor binding. Alternatively, the cells were serum-starved for 12 hours and then stimulated with 10 nM insulin, […], 25 nM IGF-II, or vehicle for 16 hours, and RNA was harvested to measure ChAT and AChE expression. Parallel 96-well cultures stimulated with growth factors for 10 minutes were used to measure ATP, or for 16 hours to measure viability, and ChAT or AChE immunoreactivity. To investigate the role of membrane cholesterol content in relation to receptor binding, control and ethanol-exposed cells were treated with vehicle, 10 mM Methyl-β-cyclodextrin (MβCD), or 10 mM aqueous soluble cholesterol in Locke's buffer (154 mM NaCl, 5.6 mM KCl, 2.3 mM CaCl2, 1.0 mM MgCl2, 3.6 mM NaHCO3, 5 mM glucose, 5 mM Hepes, pH 7.4) for 3 hours and then harvested for binding assays. To examine the effects of membrane cholesterol content on growth factor stimulated neuronal viability and function, identically treated 96-well cultures were stimulated with vehicle, 10 nM insulin, 10 nM IGF-I, or 25 nM IGF-II for 10 minutes and then analyzed for ATP content, or for 16 hours and then used to measure viability and ChAT or AChE immunoreactivity with the MICE assay (de la Monte et al., Biotechniques 26:1073 (1999)). ATP content was measured with the ATPLite assay (Packard, Meriden, Conn.). Viability was measured using the CyQuant assay (Molecular Probes, Eugene, Oreg.). Immunoreactivity was measured directly in the cultured wells using the microtiter immunocytochemical ELISA (MICE) assay (de la Monte et al., Biotechniques 26:1073 (1999)).
The concentration of ethanol used was within the range detected in human alcoholics (Fulop et al., Am. J. Med. 80:191 (1986); Jagger et al., Neurosurgery 15:303 (1984)). ChAT and AChE immunoreactivity were measured directly in the cultured cells using the MICE assay (cellular ELISA), with values normalized to cell density.
The effects of cholesterol or MβCD treatment on neuronal viability (FIGS. 19A-19C), ATP production (energy metabolism; FIGS. 19D-19F), ChAT (FIGS. […]) and AChE (FIGS. 19J-19L) immunoreactivity were examined in cells that were treated as described above and stimulated 12 hours with vehicle (control), 10 nM insulin, 10 nM IGF-I, or 25 nM IGF-II in serum-free medium. All assays were performed using 96-well cultures. Viability was measured using the CyQuant assay and ATP content was measured using the ATPLite assay.

[1] = 10 mM for 3 hours, control cells

CCO [ethanol]
ChAT immunoreactivity (50 mM ethanol for 96 hours, basal, insulin-stimulated and IGF-I stimulated, relative to control): significantly reduced

CC(C)CCC[C@@H](C)[C@H]1CC[C@H]2[C@@H]3CC=C4C[C@@H](O)CC[C@]4(C)[C@H]3CC[C@]12C [cholesterol]
basal and growth factor stimulated ChAT expression [1]: muted
insulin-, IGF-I-, and IGF-II-stimulated levels of ChAT (10 mM for 3 hours, ethanol-exposed cells, relative to vehicle-treated cells): significantly increased

Methyl-β-cyclodextrin [MβCD]
IGF-I- and IGF-II-stimulated ChAT [1]: significantly increased
insulin-stimulated ChAT [1]: abolished the insulin-stimulated increases in ChAT
ChAT expression relative to control (10 mM for 3 hours, ethanol-exposed cells, independent of growth factor stimulation): broadly reduced levels
